The term IC50 denotes the concentration that gives 50% inhibition.

The results in this text go back to patent US7029865B2, “DNA molecules encoding the melanocortin 4 receptor protein from rhesus monkey” (Merck & Co., Inc., priority 1998, dated 2006).

This assay concerns rhMC-4R. Kind of assay: Competitive binding assay, [125I]-NDP alpha MSH, membranes from rhesus MC-4R transfected cells. Particulars: read-out: IC50 rhMC-4R.
Sequence of rhMC-4R (as listed by the source): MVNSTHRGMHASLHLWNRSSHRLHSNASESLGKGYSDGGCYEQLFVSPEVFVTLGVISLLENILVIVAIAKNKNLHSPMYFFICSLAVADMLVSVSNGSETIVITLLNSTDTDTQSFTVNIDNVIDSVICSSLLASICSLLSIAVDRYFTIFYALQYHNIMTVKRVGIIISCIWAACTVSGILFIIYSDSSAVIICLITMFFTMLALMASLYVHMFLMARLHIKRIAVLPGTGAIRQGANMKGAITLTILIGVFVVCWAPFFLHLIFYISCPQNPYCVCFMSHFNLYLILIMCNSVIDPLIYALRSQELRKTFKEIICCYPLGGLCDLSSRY

Description: Reactions were incubated for 1 hour without shaking and then filtered through 96-well filter plates (Packard corp.). Filters were washed three times with TNE buffer (50 mM Tris pH 7.4, 5 mM EDTA, 150 mM NaCl), dried and counted using Microscint-20 in a Topcount scintillation counter (Packard).
Membranes prepared from rhesus MC-4R transfected cells were evaluated alongside membranes prepared from human MC-4R, MC-4R, and MC-5R expressing cells.

In the case of NDP-alpha-MSH, the IC50 was determined as 1.3 nM.
